Legend:
SOX9 protein = assay: Expression of ECM regulator SOX9 in mesenchymal stem cells (Western blot); type: cell-based, human; conditions: AD-MSC, peptide 50 and 100 μg/ml, days 3, 7, 14, FIGS. 6A to 6C
Protocol: Adipose-derived mesenchymal stem cells were treated with the peptide containing the amino acid sequence of SEQ ID NO: 1, and then it was confirmed whether there was an increase in expression of SOX9 protein, which is an ECM regulator.
At this time, as a positive control (CM), a solution containing dexamethasone (100 nM)+ascorbic acid (50 μM)+proline (40 μM)+TGFβ1 (10 ng/ml)+1X ITS was used. After removing the medium on days 3, 7, and 14, cells were harvested, a cell lysate was prepared, and Western blot was performed using antibodies (Millipore, USA) against the SOX9 and SOX5 proteins.

NFATc1 protein = NFATc1 protein in RANKL-induced osteoclast differentiation (Western blot); type: cell-based, mouse; conditions: RAW264.7, peptide 50 and 100 μg/ml with RANKL, day 1 of induction, FIG. 11
Protocol: Mouse RAW264. […] After removing the medium on day 1 of induction, cells were harvested, a cell lysate was prepared, and Western blot was performed using antibodies (Millipore, USA) against NFATc1 protein.

TRAP = conditions: RAW264.7; peptide 10, 30, 50, 100, 150 μg/ml with RANKL; 4 days; absorbance 405 nm; concentration-dependent; FIG. 10C
Protocol: Mouse RAW264.7 cell line was distributed in a 96-well plate at a density of 1.7×10^3 cells/well and cultured in DMEM medium for 24 hours. After 24 hours, the peptide of SEQ ID NO: 1 was treated at concentrations of 10, 30, 50, 100, and 150 μg/ml together with RANKL, and then differentiation of osteoclasts was induced for 4 days. The cells were treated with 100 μl of a TRAP activity solution (TRAP buffer (0.1 sodium citrate+15 ml of 50 μM sodium tartrate [pH 5.0])+4-nitrophenly phosphate disodium salt hexahydrate, sigma, 1 tablet mix), incubated at 37° C. for 1 hour, and treated with 10 μl of 2 N NaOH. Absorbance at a wavelength of 405 nm was measured using a plate reader.

[1] = tested on: human C28/12 chondrocyte cell line; assay: ECM production in chondrocytes, alcian blue staining; type: cell-based; conditions: peptide 30, 50, 100, 150 μg/ml, day 6, FIG. 2
Protocol: In order to confirm the cartilage regeneration effect of treatment with the peptide of the present invention containing the amino acid sequence of SEQ ID NO: 1, human-derived chondrocytes were treated with the peptide of SEQ ID NO: 1, and then it was confirmed whether there was an increase in formation of glycosaminoglycan, which is an ECM component.
(§1) After removing the medium on day 6, 60 μl of 3.7% formalin was added to the 96-well plate to be stained and fixed for 1 minute. After removing the 3.7% formalin, 70 μl of an alcian blue staining solution (50 ml of 3% acetic acid+0.5 g of 1% Asian blue 8GX, pH 2.5) was added, and incubation was performed at 37° C. for 24 hours. Thereafter, the staining solution was removed, washing with triple distilled water and drying were performed, and then observation was performed with a microscope.

[2] = tested on: human adipose-derived mesenchymal stem cells (AD-MSCs); assay: Differentiation of mesenchymal stem cells into chondrocytes and ECM production, alcian blue staining; type: cell-based; conditions: peptide 30, 50, 100, 150 μg/ml, day 15, FIG. 5
Protocol: Adipose-derived mesenchymal stem cells were treated with the peptide containing the amino acid sequence of SEQ ID NO: 1, and then the effect on chondrogenic differentiation of the stem cells and ECM production was confirmed.
as §1, with “15,” for “6,”

human AD-MSC cells = assay: ECM gene expression in mesenchymal stem cells (RT-PCR); type: cell-based; conditions: peptide 50 and 100 μg/ml, days 3, 7, 11, FIGS. 7A to 7C
Protocol: Adipose-derived mesenchymal stem cells were treated with the peptide containing the amino acid sequence of SEQ ID NO: 1, and then it was confirmed whether there was an increase in expression of cartilage oligomeric matrix protein (COMP), collagen type 11A (COL 11A), PCP, and ACAN (aggrecan) genes associated with the ECM production.
After removing the medium on days 3, 7, and 11, cells were harvested and RNA was isolated. After synthesizing cDNA using a cDNA synthesis kit (Intron, Korea), PCR was performed for COMP, COL 11A, PCP, ACAN, and GAPDH genes using PCR pre-mix (Intron, Korea).

[3] = tested on: mouse RAW264.7 macrophage cell line; assay: Inflammatory cytokine mRNA in macrophages induced by inflammation with TNFα (RT-PCR); type: cell-based; conditions: peptide 100 and 150 μg/ml 1 hour, then 20 nM TNF-α 24 hours, FIG. 8
Protocol: In addition to the cartilage regenerative activity confirmed in Experimental Examples 1 to 6, in order to confirm the anti-inflammatory effect according to the treatment with the peptide containing the amino acid sequence of SEQ ID NO: 1 of the present invention, mouse RAW264.7 macrophage cell line was treated with TNF to induce inflammation, and the expression levels of TNFα and IL-18, which are inflammatory cytokines, and Cox2 gene, which is an inflammation-inducing marker, were confirmed. The cytokine TNFα was treated to induce inflammation. Since TNFα corresponds to a signal transduction protein related to an inflammatory response, IL-18 corresponds to a cytokine that promotes an inflammatory response, and Cox2 is an inflammation-related protein, a degree of the inflammatory response may be confirmed by measuring the expression levels of TNFα, Cox2, and […] genes. To this end, mouse RAW264.7 cell line was distributed in a 6-well plate at a density of 2×10^5 cells/well and cultured in α-MEM medium containing 10% FBS for 24 hours. The medium was replaced with serum-free α-MEM medium (1% penicillin) and then fasted for 6 hours. […] After 1 hour, the cells were treated with 20 nM TNF-α and incubated for 24 hours. Thereafter, the cells were harvested and RNA was isolated. […]

[4] = tested on: human C28/12 chondrocyte cell line; assay: ECM gene expression in chondrocytes (RT-PCR); type: cell-based; conditions: peptide 50 and 100 μg/ml, day 9, mRNA, FIG. 3
Protocol: Human-derived chondrocytes were treated with the peptide containing the amino acid sequence of SEQ ID NO: 1, and then it was confirmed whether there was an increase in mRNA expression of collagen type II (COL2A1), aggrecan (ACAN), and proteoglycan core protein (PCP), which are ECM components, and GAPDH gene, which is a control.
To this end, human C28/12 chondrocyte cell line was distributed in a 6-well plate at a density of 8.9×10^4 cells/well and cultured in DMEM medium (cat. 11995-065, Gibco) for 24 hours. […] After removing the medium on day 9, cells were harvested and RNA was isolated. After synthesizing cDNA using a cDNA synthesis kit (Intron, Korea), PCR was performed for collagen type II, ACAN, PCP, and GAPDH genes using PCR pre-mix (Intron, Korea).

mouse RAW264.7 cell line [5] = assay: Cytotoxicity / cell proliferation, CCK-8 assay; type: cell-based; conditions: peptide 10, 30, 50, 100, 150 μg/ml, 3 days
Protocol: The effect of the peptide of the present invention on cell proliferation was confirmed using CCK-8 assay. CCK-8 reagent is reduced by cellular dehydrogenase to produce a colored product, and the proliferation of cells may be confirmed through a difference in absorbance using this.
After removing the medium, CCK-8 solution (Dojindo, CCK-8 kit) was diluted 10 times in the culture medium and treated at 100 μl each. During incubation at 37° C., absorbance at a wavelength of 450 nm was measured using a microplate reader at 30-minute intervals.

[6] = tested on: mouse RAW264.7 macrophage cell line; assay: Actin ring formation in osteoclasts induced by RANKL (immunofluorescence); type: cell-based; conditions: peptide 50 and 100 μg/ml with RANKL, 4 days, FIG. 12
Protocol: In addition to the results of Experimental Examples 9 and 10, in order to further confirm the effect of inhibiting osteoclast differentiation according to the treatment with the peptide containing the amino acid sequence of SEQ ID NO: 1 of the present invention, mouse RAW264. […] After removing the medium, the cells were washed three times with cooled PBS and fixed with 4% paraformaldehyde for 30 minutes. The cells were washed three times with cooled PBS for 5 minutes, and then the cells were permeabilized with 0.3% Triton X-100 in PBS for 30 minutes. The cells were washed three times with cooled PBS for 5 minutes, and the cells were blocked with filtered 3% BSA in PBS for 1 hour with stirring. Incubation was performed with primary antibodies (Rhodamin (Red) [Invitrogen™]) diluted to 1:100 with a blocking medium with stirring for 2 hours. The cells were blocked from light and washed three times with PBS for 15 minutes with stirring, DAPI mounting medium (VECTASHIELD® MOUNTING MEDIUM with DAPI) was added, and then each well was covered with a cover slip and observed with a microscope.

[7] = tested on: human C28/12 chondrocyte cell line; assay: ECM production in three-dimensional culture of chondrocytes (alginate beads, alcian blue or toluidine blue); type: cell-based; conditions: peptide 100 and 150 μg/ml, day 9, FIG. 4
Protocol: Human-derived chondrocytes were treated with the peptide containing the amino acid sequence of SEQ ID NO: 1 in three-dimensional culture, and then it was confirmed whether there was an increase in the formation of glycosaminoglycan, which is an ECM component.
To this end, 3×10^6 cells of human C28/12 chondrocyte cell line were suspended in 1 ml of an alginate solution (1.25% alginate, 20 mM HEPES, 150 mM Nacl, pH 7.4), and the alginate solution containing the cells were added dropwise to a polymerization solution (100 mM CaCl2), 10 mM HEPES, pH 7.4), thereby preparing beads. The prepared beads were washed twice with DPBS, and then the beads were distributed in a conical tube containing DMEM medium (5% FBS). […] After removing the medium on day 9, 3.7% formaldehyde was added and fixed for 6 hours. Dehydration was performed using a tissue processor (EtOH 70%, 80%, 90%, 100% I, II, xylene I, II in this order for 30 minutes each), and a paraffin block was prepared by embedding. The paraffin block was sectioned on a glass slide to a thickness of […] and then completely dried for 24 hours or longer. The sections were hydrated (Xylene I, II, EtOH 100% I, II, 90%, 80%, 70% in this order for 3 minutes each) and washed three times by being immersed in running water for 10 seconds. […]

mouse RAW264.7 cell line [8] = assay: Osteoclast differentiation induced by RANKL, TRAP staining; type: cell-based; conditions: peptide 10 to 150 μg/ml with RANKL, 4 days, FIG. 10A
Protocol: After removing the medium, the cells were fixed for 30 seconds and washed twice with double distilled water. Staining was performed with 100 μl of a TRAP staining solution (acid phosphatase kit, Sigma aldrich) at 37° C. for 30 minutes. Thereafter, the staining solution was removed, washing with double distilled water three times and drying were performed, and then observation was performed with a microscope.

COX2 protein = COX2 protein in macrophages induced by inflammation with TNFα (Western blot); type: cell-based, mouse; conditions: RAW264.7, peptide 100 and 150 μg/ml 1 hour, then 20 nM TNF-α 24 hours, FIG. 9
Protocol: In addition to the results of Experimental Example 7, in order to further confirm the anti-inflammatory effect of the treatment with the peptide containing the amino acid sequence of SEQ ID NO: 1 of the present invention, mouse RAW264. 7 macrophage cell line was treated with TNFα to induce inflammation, and the expression level of COX2 protein, which is an inflammation-inducing marker, was confirmed.
To this end, mouse RAW264.7 cell line was distributed in a 6-well plate at a density of 2×10^5 cells/well and cultured in α-MEM medium containing 10% FBS for 24 hours. The medium was replaced with serum-free α-MEM medium (1% penicillin) and then fasted for 6 hours. […] After 1 hour, the cells were treated with 20 nM TNF-α and incubated for 24 hours. Thereafter, the cells were harvested, a cell lysate was prepared, and then Western blot was performed using antibodies against the COX2 protein (Cell Signaling Technology, USA).

“ACDWGLWWLC (peptide having cartilage regeneration activity) [SEQ ID NO: 1]” was tested, and the “production of SOX9 protein (ECM regulator)” value (SOX9 protein) was “increased production of SOX9 protein”, the “production of NFATc1 protein” value (NFATc1 protein) was “inhibited the production of NFATc1 protein” and the “activity of TRAP (marker of osteoclasts)” value (TRAP) was “inhibited the activity of TRAP”. The “ECM production (glycosaminoglycan formation) in chondrocytes” value [1] was “promoted ECM production”, the “chondrogenic differentiation of adipose-derived mesenchymal stem cells” value [2] was “promoted the chondrogenic differentiation” and the “production of glycosaminoglycan (ECM component) in adipose-derived mesenchymal stem cells” value [2] was “promoted”. For the same sequence, the “expression of ACAN gene” value (human AD-MSC cells) was “promoted the expression”, the “expression of COL 11A gene” value (human AD-MSC cells) was “promoted the expression” and the “expression of COMP gene” value (human AD-MSC cells) was “promoted the expression”. The “expression of PCP gene” value (human AD-MSC cells) was “promoted the expression”, the “expression of inflammatory cytokine genes (TNFα, IL-1β, Cox2 mRNA)” value [3] was “inhibited the expression of inflammatory cytokine genes” and the “expression of ACAN (aggrecan) gene” value [4] was “promoted the expression”. For the same sequence, the “expression of PCP (proteoglycan core protein) gene” value [4] was “promoted the expression”, the “expression of collagen type II (COL2A1) gene” value [4] was “promoted the expression” and the “toxicity to mouse macrophages” value (mouse RAW264.7 cell line [5]; CCK-8, FIG. 10B) was “not toxic”. The “CCK-8 absorbance at 450 nm (cell proliferation) versus untreated” value (mouse RAW264.7 cell line [5]; FIG. 10B) was “the absorbance was higher”, the “formation of actin rings” value [6] was “inhibited the formation of actin rings” and the “formation of glycosaminoglycan (ECM component) in three-dimensional culture of chondrocytes” value [7] was “promoted the formation of glycosaminoglycan”. The “differentiation into osteoclasts induced by RANKL” value (mouse RAW264.7 cell line [8]) was “inhibited the differentiation into osteoclasts” and the “increase in inflammatory proteins (COX2 protein)” value (COX2 protein) was “inhibited the increase in inflammatory proteins”.
